Source: patent publication US9523100B2, “Pesticidal compositions and related methods” (DOW AGROSCIENCES LLC, priority 2013, dated 2016)

Assays:
[1] = system: Green Peach Aphid (GPA) (Myzus persicae) (MYZUPE); experiment: Bioassay for Green Peach Aphid (GPA), foliar spray on cabbage seedlings; assay type: in vivo; details: 72 h, 200 ppm foliar spray on cabbage seedlings, graded after three days, Abbott corrected % control, read-out: GPA 200 ppm, % Control (or Mortality) rating
Procedure, shortened: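 Cabbage seedlings infested with 20-50 GPA (wingless adults and nymphs) one day before spraying to runoff with 200 ppm compound; four pots per treatment. Live aphids counted after three days at ~25° C; percent control by Abbott's correction against solvent-sprayed plants.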

[2] = system: Sweetpotato Whitefly-Crawler (WF) (Bemisia tabaci) (BEMITA); experiment: Insecticidal test for Sweetpotato Whitefly-Crawler (WF) in foliar spray assay on cotton plants; assay type: in vivo; details: 216 h, 200 ppm foliar spray on cotton plants, graded after 9 days, Abbott corrected % control, read-out: WF 200 ppm, % Control (or Mortality) rating
Procedure, shortened: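 Cotton plants carrying 200–400 whitefly eggs sprayed to run-off on both leaf surfaces at 200 ppm (acetone/0.025% Tween 20), four plants per treatment. After 9 days at about 25 °C, live 3rd–4th instar nymphs counted; Abbott-corrected percent control versus solvent check.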

CCN(C(=O)C1CN(C(=O)CC(F)(F)F)C1)c1cn(-c2cccnc2)nc1Cl [Compound P24, N-(3-Chloro-1-(pyridin-3-yl)-1H-pyrazol-4-yl)-N-ethyl-1-(3,3,3-trifluoropropanoyl)azetidine-3-carboxamide]
mortality at 200 ppm [1]: 80 to 100% | mortality at 200 ppm [2]: 0 to 80%

CCN(C(=O)CCn1ccc(/C(C)=N/OC)n1)c1cn(-c2cccnc2)nc1Cl [FA1, (E/Z)-N-(3-Chloro-1-(pyridin-3-yl)-1H-pyrazol-4-yl)-N-ethyl-3-(3-(1-(methoxyimino)ethyl)-1H-pyrazol-1-yl)propanamide]
mortality at 200 ppm [1]: 0 to 80% | mortality at 200 ppm [2]: 80 to 100%

CCN(C(=O)CCn1ccc(/C(C)=N/OC(C)C)n1)c1cn(-c2cccnc2)nc1Cl [FA2, (E/Z)-N-(3-Chloro-1-(pyridin-3-yl)-1H-pyrazol-4-yl)-N-ethyl-3-(3-(1-(isopropoxyimino)ethyl)-1H-pyrazol-1-yl)propanamide]
mortality at 200 ppm [1]: 0 to 80% | mortality at 200 ppm [2]: 80 to 100%

CCN(C(=O)C1CCCN(C(=O)C(C)C)C1)c1cn(-c2cccnc2)nc1Cl (centres unmarked) [FA3, N-(3-Chloro-1-(pyridin-3-yl)-1H-pyrazol-4-yl)-N-ethyl-1-isobutylylpiperidine-3-carboxamide]
mortality at 200 ppm [1]: 80 to 100% | mortality at 200 ppm [2]: 80 to 100%

CCN(C(=O)CC/C(C)=N/OCCCCC(F)(F)F)c1cn(-c2cccnc2)nc1Cl [FA4, (E/Z)-N-(3-Chloro-1-(pyridin-3-yl)-1H-pyrazol-4-yl)-N-ethyl-4-(((5,5,5-trifluoropentyl)oxy)imino)pentanamide]
mortality at 200 ppm [1]: 0 to 80% | mortality at 200 ppm [2]: 80 to 100%

CCN(C(=O)C1CCN(C(=O)C(F)(F)F)CC1)c1cn(-c2cccnc2)nc1Cl [FA5, N-(3-Chloro-1-(pyridin-3-yl)-1H-pyrazol-4-yl)-N-ethyl-1-(2,2,2-trifluoroacetyl)piperidine-4-carboxamide]
mortality at 200 ppm [1]: 80 to 100% | mortality at 200 ppm [2]: 0 to 80%

CCN(C(=O)C1CCN(C(=O)CCC(F)(F)F)CC1)c1cn(-c2cccnc2)nc1Cl [FA6, N-(3-Chloro-1-(pyridin-3-yl)-1H-pyrazol-4-yl)-N-ethyl-1-(4,4,4-trifluorobutanoyl)piperidine-4-carboxamide]
mortality at 200 ppm [1]: 80 to 100% | mortality at 200 ppm [2]: 0 to 80%

CCN(C(=O)C1CCN(C(=O)CCC#N)CC1)c1cn(-c2cccnc2)nc1Cl [FA7, N-(3-Chloro-1-(pyridin-3-yl)-1H-pyrazol-4-yl)-1-(3-cyanopropanoyl)-N-ethylpiperidine-4-carboxamide]
mortality at 200 ppm [1]: 80 to 100% | mortality at 200 ppm [2]: < 0%

CCN(C(=O)C1CCN(C(=O)c2cccnc2)CC1)c1cn(-c2cccnc2)nc1Cl [FA8, N-(3-Chloro-1-(pyridin-3-yl)-1H-pyrazol-4-yl)-N-ethyl-1-nicotinoylpiperidine-4-carboxamide]
mortality at 200 ppm [1]: 80 to 100% | mortality at 200 ppm [2]: 0 to 80%

CCN(C(=O)C1CCN(C(=O)C(F)(F)F)C1)c1cn(-c2cccnc2)nc1Cl (centres unmarked) [FA9, N-(3-Chloro-1-(pyridin-3-yl)-1H-pyrazol-4-yl)-N-ethyl-1-(2,2,2-trifluoroacetyl)pyrrolidine-3-carboxamide]
mortality at 200 ppm [1]: 80 to 100% | mortality at 200 ppm [2]: < 0%

CCN(C(=O)C1CCN(C(=O)CCC(F)(F)F)C1)c1cn(-c2cccnc2)nc1Cl (centres unmarked) [FA10, N-(3-Chloro-1-(pyridin-3-yl)-1H-pyrazol-4-yl)-N-ethyl-1-(4,4,4-trifluorobutanoyl)pyrrolidine-3-carboxamide]
mortality at 200 ppm [1]: 80 to 100% | mortality at 200 ppm [2]: 80 to 100%

CCN(C(=O)C1CCN(C(=O)CCC#N)C1)c1cn(-c2cccnc2)nc1Cl (centres unmarked) [FA11, N-(3-Chloro-1-(pyridin-3-yl)-1H-pyrazol-4-yl)-1-(3-cyanopropanoyl)-N-ethylpyrrolidine-3-carboxamide]
mortality at 200 ppm [1]: 80 to 100% | mortality at 200 ppm [2]: 80 to 100%

CCN(C(=O)C1CCN(C(=O)c2cccnc2)C1)c1cn(-c2cccnc2)nc1Cl (centres unmarked) [FA12, N-(3-Chloro-1-(pyridin-3-yl)-1H-pyrazol-4-yl)-N-ethyl-1-nicotinoylpyrrolidine-3-carboxamide]
mortality at 200 ppm [1]: 0 to 80% | mortality at 200 ppm [2]: 0 to 80%
